Test results published in US11737466B2, “Method of improving the ability of plants to resistance diseases” (National Taiwan University, priority 2019, dated 2023).

System: Bacillus amyloliquefaciens WF02
Experiment: antagonistic assay (inhibition zone) on Bacillus amyloliquefaciens WF02 plate
Type: cell-based
Conditions: 100,000 ppm, 20 μL, 37° C., 48 hours, positive control, read-out: diameter of inhibition zone on WF02 plate
Excerpt: To be used as leveling agents for the biological preparation, in the embodiment of the present invention, it is necessary to confirm that the Bidens pilosa extract of the present invention without the effect of inhibiting the growth of the Bacillus amyloliquefaciens WF02 of the present invention, so antagonistic assay was used; wherein ampicillin is known with the effect on inhibiting the growth of the Bacillus amyloliquefaciens, therefore, it was used as a positive control group. First, the Bacillus amyloliquefacien WF02 of the present invention was cultured in the above method and 100 μL of a bacterial solution with an OD600 value of 0.3, which approximately contains 10^8 CFU/mL, was uniformly applied to two agarose plates (diameter 9 cm) and a plurality of circular sterile filter papers (diameter 8 mm) was placed thereon; wherein one plate was for testing the higher concentration (125,000-200,000 ppm) of the Bidens pilosa of the present invention, and the other was for the lower concentration (300-2,000 ppm). […]

For `CC1(C)S[C@@H]2[C@H](NC(=O)[C@H](N)c3ccccc3)C(=O)N2[C@H]1C(=O)O` [ampicillin], which zone of inhibition at 100000 ppm is on record?
Its zone of inhibition at 100000 ppm is ~18.4 mm.
